Results from the supplement of paper PMC5579334.

What was measured:
HS-PSS [1] = assay: relative IC50 (inflection point of fitted dose-response curve, CellTox-Green cytotoxicity, 72 h; top asymptote may be below 50%); higher = less potent
How it was run: (§1)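 MPNST cell lines and primary human Schwann cells were grown for 72 h at 37 °C in 384-well plates containing five 10-fold compound dilutions. CellTox-Green, added before seeding at a final 1:1000 dilution, gave fluorescence from DNA released by disrupted cells, and signals were scaled to vehicle and positive-control wells. Curves were fitted with a four-parameter logistic model. Drug sensitivity score and relative IC50 come from these fits, with IC50 censored at the top concentration.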

ST8814 [2] = assay: as above
How it was run: as §1

HSC2 [3] = assay: as above
How it was run: as §1

HSC1 [4] = assay: as above
How it was run: as §1

STS26T [5] = assay: as above
How it was run: as §1

S1507-2 = assay: relative IC50 (inflection point of fitted dose-response curve, CellTiter-Glo viability, 72 h; top asymptote may be below 50% inhibition); higher = less potent
How it was run: (§2)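 For this screen, 384-well plates were preprinted with each compound at five concentrations in 10-fold steps and seeded with MPNST cell lines or primary human Schwann cells at 750–1000 cells per well. Incubation lasted 72 h at 37 °C, 5% CO2, and CellTiter-Glo ATP luminescence, scaled between vehicle and positive-control wells and averaged over duplicates where available, served as viability. Logistic fits with four parameters were applied. Relative IC50 (censored at the top concentration) and drug sensitivity score derive from these fits, and percent inhibition is at the top concentration.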

ST8814 [6] = assay: as above
How it was run: as §2

HSC2 [7] = assay: as above
How it was run: as §2

HSC1 [8] = assay: as above
How it was run: as §2

YST-1 = assay: as above
How it was run: as §2

STS26T [9] = assay: as above
How it was run: as §2

S462 = assay: as above
How it was run: as §2

HS-PSS [10] = assay: as above
How it was run: as §2

HS-Sch-2 = assay: as above
How it was run: as §2

Compound	relative IC50 (HS-PSS [1]) [µM]	relative IC50 (ST8814 [2]) [µM]	relative IC50 (HSC2 [3]) [µM]	relative IC50 (HSC1 [4]) [µM]	relative IC50 (STS26T [5]) [µM]	relative IC50 (S1507-2) [µM]	relative IC50 (ST8814 [6]) [µM]	relative IC50 (HSC2 [7]) [µM]	relative IC50 (HSC1 [8]) [µM]	relative IC50 (YST-1) [µM]	relative IC50 (STS26T [9]) [µM]	relative IC50 (S462) [µM]	relative IC50 (HS-PSS [10]) [µM]	relative IC50 (HS-Sch-2) [µM]
CO[C@H]1C[C@@H]2CC[C@@H](C)[C@@](O)(O2)C(=O)C(=O)N2CCCC[C@H]2C(=O)O[C@H]([C@H](C)C[C@@H]2CC[C@@H](OCCO)[C@H](OC)C2)CC(=O)[C@H](C)/C=C(\C)[C@@H](O)[C@@H](OC)C(=O)[C@H](C)C[C@H](C)/C=C/C=C/C=C/1C [Everolimus]	> 0.1	> 0.1	> 0.1	> 0.1	> 0.1	0.00146	0.00032	0.000239	0.00012	0.00594	0.00014	0.000537		
CN1CCc2c(c3ccccc3n2Cc2ccc(C(=O)NO)cc2)C1 [Tubastatin A]	> 10	> 10	> 10	> 10	2.76	2.43	3.47		3.18	1.6	2.84	3.27	3.01	3.37
O=NN(CCCl)C(=O)NCCCl [Carmustine]	> 10	> 10	> 10	> 10	> 10	> 10	> 10	> 10	> 10	> 10	> 10	> 10		> 10
CC(=O)N(O)CCCCCNC(=O)CCC(=O)N(O)CCCCCNC(=O)CCC(=O)N(O)CCCCCN [Deferoxamine aq]		3.04	> 10	> 10	> 10	0.931	1.3	0.771	1.47		1.42	1.63		
Cc1ccc([N+](=O)[O-])cc1S(=O)(=O)N(C)/N=C/c1cnc2ccc(Br)cn12 [PIK-75]		0.567	0.33	0.299	0.16	0.275	0.212	0.161	0.175		0.143	0.186		
CC(C)(C)NC(=O)[C@H]1CC[C@H]2[C@@H]3CC[C@H]4NC(=O)C=C[C@]4(C)[C@H]3CC[C@]12C [Finasteride]	> 10	> 10	> 10	> 10	> 10	> 10	> 10	> 10	> 10	> 10		> 10	> 10	> 10
COc1cc2c(Oc3ccc(NC(=O)C4(C(=O)Nc5ccc(F)cc5)CC4)cc3F)ccnc2cc1OCCCN1CCOCC1 [Foretinib]		0.288	> 1	> 1	0.311	0.138	0.142	0.256	0.238	0.275	0.209	0.257		0.378
CO[C@@]12[C@H](COC(N)=O)C3=C(C(=O)C(C)=C(N)C3=O)N1C[C@@H]1N[C@@H]12 [Mitomycin C]	> 10	3.08	1.05	2.87	2.85	3.79	3.76	3.65	3.33	2.19	3.59	3.69		3.95
Clc1ccc(C(c2ccccc2Cl)C(Cl)Cl)cc1 (centres undefined) [Mitotane]	> 10	> 10	> 10	> 10	> 10	> 10		> 10	> 10	> 10	> 10	> 10	> 10	> 10
O=C(O)CCCCC(CCSCc1ccccc1)SCc1ccccc1 (centres undefined) [CPI-613]	> 10	> 10	> 10	> 10	> 10	> 10	> 10	> 10	> 10		> 10	> 10		> 10
Nc1ncnc2c1nc(Cl)n2[C@@H]1O[C@H](CO)[C@@H](O)[C@H]1O [8-chloro-adenosine]	> 50		> 50	> 50	2.82	1.89	1.24	3.82	3.55	2.58	2.8	1.59	6.59	2.96
O=C(O)c1ccc(-c2c[nH]c3ncc(-c4ccccc4)cc23)cc1C1CCCC1	> 10	> 10	> 10	> 10	> 10	> 10	> 10		> 10	> 10	> 10	> 10		2.98
CN(c1ccccc1CNc1nc(Nc2ccc3c(c2)CC(=O)N3)ncc1C(F)(F)F)S(C)(=O)=O					0.849	1.25	1.37	0.326	0.209	1.24	1.42	1.01	2.36	2.44
CN(N=O)C(=O)N[C@@H]1[C@@H](O)[C@H](O)[C@@H](CO)O[C@@H]1O [Streptozocin]	> 10	> 10	> 10	> 10	> 10	> 10		> 10	> 10		> 10	> 10		
Nc1ccn([C@@H]2O[C@H](CO)[C@@H](O)[C@@H]2O)c(=O)n1 [Cytarabine]	0.336	0.786	1.96	2.18		1.52	0.689	0.29	0.283	0.21	0.236	0.163	0.479	0.688
O=S(=O)(c1cccc2cnccc12)N1CCCNCC1 [Fasudil]		> 50	> 50	> 50	20.2	19.7		16.6	13	16.5	17.6	16.1	19.8	16.7
CC1(C)CNc2cc(NC(=O)c3cccnc3NCc3ccncc3)ccc21 [Motesanib]	> 10	> 10	> 10	> 10	> 10	> 10	> 10		> 10		> 10	> 10	> 10	> 10
Cc1nc(Nc2ncc(C(=O)Nc3c(C)cccc3Cl)s2)cc(N2CCN(CCO)CC2)n1 [Dasatinib]	> 1	0.0294	> 1	> 1	0.052	0.0538	0.0439	0.0817	0.0487	0.0168	0.0258	0.0413		0.0849
Nc1ncn([C@@H]2O[C@H](CO)[C@@H](O)[C@H]2O)c(=O)n1 [Azacitidine]	> 10	> 10	> 10	> 10	> 10	> 10		3.32	2.34		3.84	2.58		
COc1cc([C@@H]2c3cc4c(cc3[C@@H](O[C@@H]3O[C@@H]5CO[C@@H](C)O[C@H]5[C@H](O)[C@H]3O)[C@H]3COC(=O)[C@H]23)OCO4)cc(OC)c1O [Etoposide]		3.23	1.42	3.13	0.896	1.49	1.93	0.241	0.658	0.175	1.21	0.833	1.3	1.12
CCn1c(-c2nonc2N)nc2cnc(Oc3cccc(NC(=O)c4ccc(OCCN5CCOCC5)cc4)c3)cc21	> 10	> 10		2.52	0.322	1.48	1.93	0.0514	0.064	0.618	0.775	1.49	1.61	0.988
C[C@]1(O)C[C@@H](c2nc(-c3ccc4ccc(-c5ccccc5)nc4c3)c3c(N)nccn32)C1 [Linsitinib]	> 10	> 10	> 10	> 10	> 10	0.0207	> 10	> 10	0.00391	0.567		0.101	> 10	0.77
COc1cc2nccc(Oc3ccc(NC(=O)Nc4cc(C)on4)c(Cl)c3)c2cc1OC [Tivozanib]	> 10	1.9	> 10		1.89	0.0189	> 10	1.79	1.71	2.26	1.87	0.828	3.73	3.87
N#CCNC(=O)c1ccc(-c2ccnc(Nc3ccc(N4CCOCC4)cc3)n2)cc1 [Momelotinib]	> 10	> 10	3.22	3.37		3.76	1.97	1.33	1.41	1.3	3.11	2.74	2.5	1.64
NC(=O)c1ccc(I)c([N+](=O)[O-])c1 [Iniparib]	> 10	> 10	> 10	> 10		> 10	> 10	> 10	> 10	> 10	> 10	> 10	> 10	> 10
Cn1cnc2c(F)c(Nc3ccc(Br)cc3Cl)c(C(=O)NOCCO)cc21 [Selumetinib]	> 10		> 10	> 10	> 10	0.301	0.727	1.71	2.6	> 10	0.24	0.736		2.03
Cc1c(CN2CCN(C(=O)[C@H](C)O)CC2)sc2c(N3CCOCC3)nc(-c3cnc(N)nc3)nc12 [GDC-0980]		2.88	> 10	> 10	> 10	0.447	1.06	0.469	0.636		0.486	0.617		
CC(C)C[C@H](NC(=O)[C@@H](COC(C)(C)C)NC(=O)[C@H](Cc1ccc(O)cc1)NC(=O)[C@H](CO)NC(=O)[C@H](Cc1c[nH]c2ccccc12)NC(=O)[C@H](Cc1cnc[nH]1)NC(=O)[C@@H]1CCC(=O)N1)C(=O)N[C@@H](CCCNC(=N)N)C(=O)N1CCC[C@H]1C(=O)NNC(N)=O [Goserelin]	> 10	> 10	> 10	> 10	> 10	> 10	> 10	> 10	> 10	> 10	> 10	> 10	> 10	
